Source: patent publication US20080254983A1, “Herbicide Composition” (NUFARM AUSTRALIA LIMITED, priority 2005, published 2008)

Tested on: Annual Ryegrass (LOLRI)
Assay: Field trials throughout Australia, annual ryegrass (LOLRI) counts
Format: in vivo
Conditions: for % control: from mean vs untreated control; for Mean Plants/m2: mean of the seven trials
Protocol: A series of field trials were conducted throughout Australia to assess the performance of Example 5 composition (400 g/L trifluralin+117 g/L cinmethylin+UAN compatibiliser) versus the performance of either trifluralin or cinmethylin applied as standalone treatments.
All trials were sown under a knifepoint/reduced tillage seeding systems with trial design and management reflecting common district and grower practice. Rates of herbicide application were designed to allow comparison of the co-mixture and solvency package against the relative merits of either active ingredient applied alone in their currently available commercial formulation package (see table below).
Products were applied prior to sowing and were applied in water with industry accepted application equipment and spray nozzles.

CCCN(CCC)c1c([N+](=O)[O-])cc(C(F)(F)F)cc1[N+](=O)[O-] [Trifluralin, trifluralin]
LOLRI Plants/m2 (720 gai/ha, Vic Lentils 81-DAT): 26 Plants/m2
LOLRI Plants/m2 (720 gai/ha, Vic Lentils H02 51-DAT): 21 Plants/m2
LOLRI Plants/m2 (720 gai/ha, Vic Wheat 49-DAT): 105 Plants/m2
LOLRI Plants/m2 (720 gai/ha, Vic Wheat H03 79-DAT): 168 Plants/m2
LOLRI Plants/m2 (720 gai/ha, WA Canola W06-197 27-DAT): 264 Plants/m2
LOLRI Plants/m2 (720 gai/ha, WA Lupins W06-200 19-DAT): 224 Plants/m2
LOLRI Plants/m2 (720 gai/ha, WA Wheat W06-196 27-DAT): 191 Plants/m2
% control (720 gai/ha): 63%
Mean Plants/m2 (720 gai/ha): 143 Plants/m2
LOLRI Plants/m2 (960 gai/ha, Vic Lentils 81-DAT): 22 Plants/m2
LOLRI Plants/m2 (960 gai/ha, Vic Lentils H02 51-DAT): 19 Plants/m2
LOLRI Plants/m2 (960 gai/ha, Vic Wheat 49-DAT): 10 Plants/m2
LOLRI Plants/m2 (960 gai/ha, Vic Wheat H03 79-DAT): 22 Plants/m2
LOLRI Plants/m2 (960 gai/ha, WA Canola W06-197 27-DAT): 208 Plants/m2
LOLRI Plants/m2 (960 gai/ha, WA Lupins W06-200 19-DAT): 169 Plants/m2
LOLRI Plants/m2 (960 gai/ha, WA Wheat W06-196 27-DAT): 207 Plants/m2
% control (960 gai/ha): 76%
Mean Plants/m2 (960 gai/ha): 94 Plants/m2
LOLRI Plants/m2 (1440 gai/ha, Vic Lentils 81-DAT): 23 Plants/m2
LOLRI Plants/m2 (1440 gai/ha, Vic Lentils H02 51-DAT): 14 Plants/m2
LOLRI Plants/m2 (1440 gai/ha, Vic Wheat 49-DAT): 29 Plants/m2
LOLRI Plants/m2 (1440 gai/ha, Vic Wheat H03 79-DAT): 33 Plants/m2
LOLRI Plants/m2 (1440 gai/ha, WA Canola W06-197 27-DAT): 156 Plants/m2
LOLRI Plants/m2 (1440 gai/ha, WA Lupins W06-200 19-DAT): 184 Plants/m2
LOLRI Plants/m2 (1440 gai/ha, WA Wheat W06-196 27-DAT): 135 Plants/m2
% control (1440 gai/ha): 79%
Mean Plants/m2 (1440 gai/ha): 82 Plants/m2

Cc1ccccc1CO[C@@H]1C[C@@]2(C(C)C)CC[C@]1(C)O2 (racemic) [Cinmethylin]
LOLRI Plants/m2 (100 gai/ha, Vic Lentils 81-DAT): 18 Plants/m2
LOLRI Plants/m2 (100 gai/ha, Vic Lentils H02 51-DAT): 15 Plants/m2
LOLRI Plants/m2 (100 gai/ha, Vic Wheat 49-DAT): 69 Plants/m2
LOLRI Plants/m2 (100 gai/ha, Vic Wheat H03 79-DAT): 136 Plants/m2
LOLRI Plants/m2 (100 gai/ha, WA Canola W06-197 27-DAT): 419 Plants/m2
LOLRI Plants/m2 (100 gai/ha, WA Lupins W06-200 19-DAT): 503 Plants/m2
LOLRI Plants/m2 (100 gai/ha, WA Wheat W06-196 27-DAT): 300 Plants/m2
% control (100 gai/ha): 46%
Mean Plants/m2 (100 gai/ha): 208 Plants/m2
LOLRI Plants/m2 (200 gai/ha, Vic Lentils 81-DAT): 10 Plants/m2
LOLRI Plants/m2 (200 gai/ha, Vic Lentils H02 51-DAT): 8 Plants/m2
LOLRI Plants/m2 (200 gai/ha, Vic Wheat 49-DAT): 67 Plants/m2
LOLRI Plants/m2 (200 gai/ha, Vic Wheat H03 79-DAT): 78 Plants/m2
LOLRI Plants/m2 (200 gai/ha, WA Canola W06-197 27-DAT): 307 Plants/m2
LOLRI Plants/m2 (200 gai/ha, WA Lupins W06-200 19-DAT): 235 Plants/m2
LOLRI Plants/m2 (200 gai/ha, WA Wheat W06-196 27-DAT): 264 Plants/m2
% control (200 gai/ha): 64%
Mean Plants/m2 (200 gai/ha): 138 Plants/m2
LOLRI Plants/m2 (400 gai/ha, Vic Lentils 81-DAT): 14 Plants/m2
LOLRI Plants/m2 (400 gai/ha, Vic Lentils H02 51-DAT): 10 Plants/m2
LOLRI Plants/m2 (400 gai/ha, Vic Wheat 49-DAT): 22 Plants/m2
LOLRI Plants/m2 (400 gai/ha, Vic Wheat H03 79-DAT): 19 Plants/m2
LOLRI Plants/m2 (400 gai/ha, WA Canola W06-197 27-DAT): 324 Plants/m2
LOLRI Plants/m2 (400 gai/ha, WA Lupins W06-200 19-DAT): 124 Plants/m2
LOLRI Plants/m2 (400 gai/ha, WA Wheat W06-196 27-DAT): 229 Plants/m2
% control (400 gai/ha): 73%
Mean Plants/m2 (400 gai/ha): 106 Plants/m2
